Test results taken from patent US20240270722A1, “POLO LIKE KINASE 4 INHIBITORS” (ORIC Pharmaceuticals, Inc., priority 2021, published 2024).
pIC50: −log10 of the molar value.

Columns and labels:
[1] = molecular target: T1, human recombinant Aurora A (Homo sapiens, UniProt O14965); experiment: Aurora A Kinase Biochemical Assay (ADP-Glo); conditions: selectivity ratio Aurora A vs PLK4
T1 construct: purchased ThermoFisher PR5935A
T1 sequence (O14965 1-403): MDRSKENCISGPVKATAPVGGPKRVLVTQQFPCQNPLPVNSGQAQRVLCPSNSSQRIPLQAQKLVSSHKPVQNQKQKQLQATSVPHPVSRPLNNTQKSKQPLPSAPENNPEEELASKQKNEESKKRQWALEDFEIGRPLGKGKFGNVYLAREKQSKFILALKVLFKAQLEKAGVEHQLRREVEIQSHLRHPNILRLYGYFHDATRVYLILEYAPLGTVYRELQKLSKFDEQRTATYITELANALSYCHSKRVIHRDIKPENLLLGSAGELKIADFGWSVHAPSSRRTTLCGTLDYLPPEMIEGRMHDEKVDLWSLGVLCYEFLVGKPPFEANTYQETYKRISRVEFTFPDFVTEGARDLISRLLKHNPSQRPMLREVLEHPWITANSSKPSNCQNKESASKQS
Protocol: (§1) Activity of human recombinant Aurora A (ThermoFisher, cat #PR5935A) was measured by quantification of adenosine diphosphate (ADP) using the ADP-Glo Kinase Assay Kit (Promega, cat #V9102). […] 5 μL of 5.0 nM Aurora A in assay buffer (50 mM HEPES, pH 7.5, 0.01% Brij-35, 0.01% BSA, 10 mM MgCl2, 1 mM EGTA, 1 mM DTT) was added to the plates. Test compounds and Aurora A were incubated for 15 minutes at room temperature (RT). […] Reactions were stopped and the remaining ATP depleted by adding 10 uL of ADP-Glo reagent (Promega, cat #V912B) and incubating for 40 minutes at RT. The simultaneous conversion of the remaining ADP to ATP and measurement of the newly synthesized ATP was achieved by addition of 20 μL Kinase Detection reagent (Promega, cat #V914B), incubation for 30 min at RT, and luminescence detection using the EnVision plate reader (PerkinElmer). […] The IC50 values reported in Table 2 were determined using four parameter non-linear regression curve fit.

[2] = molecular target: T2, human recombinant Aurora B (Homo sapiens, UniProt Q96GD4); experiment: Aurora B Kinase Biochemical Assay (ADP-Glo); conditions: selectivity ratio Aurora B vs PLK4
T2 construct: purchased ThermoFisher PR9210B
Protocol: as §1, with “Aurora B” for “Aurora A”, “cat #PR9210B)” for “cat #PR5935A)”, “of 20” for “of 5.0”

human recombinant PLK4 = molecular target: T3, human recombinant PLK4 (Homo sapiens, UniProt O00444); experiment: PLK4 Biochemical Assay (ADP-Glo)
T3 construct: purchased ThermoFisher 4PV6396
T3 sequence (O00444 1-970): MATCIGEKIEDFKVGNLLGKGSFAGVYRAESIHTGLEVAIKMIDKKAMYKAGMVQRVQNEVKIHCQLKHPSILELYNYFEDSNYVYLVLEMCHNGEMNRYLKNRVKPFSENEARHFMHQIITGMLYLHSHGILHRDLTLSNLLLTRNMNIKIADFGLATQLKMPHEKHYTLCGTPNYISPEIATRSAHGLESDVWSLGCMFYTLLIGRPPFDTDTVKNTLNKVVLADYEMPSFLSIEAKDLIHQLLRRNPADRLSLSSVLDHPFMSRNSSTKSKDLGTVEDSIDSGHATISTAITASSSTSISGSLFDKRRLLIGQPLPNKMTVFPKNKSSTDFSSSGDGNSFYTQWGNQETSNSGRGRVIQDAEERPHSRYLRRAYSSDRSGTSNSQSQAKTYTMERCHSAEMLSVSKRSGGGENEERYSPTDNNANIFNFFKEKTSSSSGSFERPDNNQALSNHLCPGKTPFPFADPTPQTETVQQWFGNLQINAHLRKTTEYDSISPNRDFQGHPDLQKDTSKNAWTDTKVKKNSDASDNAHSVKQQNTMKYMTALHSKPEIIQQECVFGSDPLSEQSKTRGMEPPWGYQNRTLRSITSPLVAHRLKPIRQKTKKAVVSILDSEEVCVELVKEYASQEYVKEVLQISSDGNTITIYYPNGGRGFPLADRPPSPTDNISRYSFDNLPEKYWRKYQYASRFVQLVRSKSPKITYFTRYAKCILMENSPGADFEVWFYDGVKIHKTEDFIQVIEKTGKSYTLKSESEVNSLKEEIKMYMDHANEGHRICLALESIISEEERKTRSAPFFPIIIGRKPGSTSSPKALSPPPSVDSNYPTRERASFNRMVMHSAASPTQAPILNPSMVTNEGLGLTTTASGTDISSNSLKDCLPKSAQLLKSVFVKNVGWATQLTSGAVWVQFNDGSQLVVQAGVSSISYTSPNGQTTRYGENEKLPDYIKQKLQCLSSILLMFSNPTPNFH
Protocol: 5 μL of 1.0 nM PLK4 protein in assay buffer (50 mM HEPES, pH 7.5, 0.01% Brij-35, 0.01% BSA, 10 mM MgCl2, 1 mM EGTA, 1 mM DTT) was added to the plates. Test compounds and PLK4 were incubated for 15 minutes at room temperature (RT). […] The IC50 values reported in Table 2 were determined using four parameter non-linear regression curve fit.

T2 sequence (Q96GD4 whole entry): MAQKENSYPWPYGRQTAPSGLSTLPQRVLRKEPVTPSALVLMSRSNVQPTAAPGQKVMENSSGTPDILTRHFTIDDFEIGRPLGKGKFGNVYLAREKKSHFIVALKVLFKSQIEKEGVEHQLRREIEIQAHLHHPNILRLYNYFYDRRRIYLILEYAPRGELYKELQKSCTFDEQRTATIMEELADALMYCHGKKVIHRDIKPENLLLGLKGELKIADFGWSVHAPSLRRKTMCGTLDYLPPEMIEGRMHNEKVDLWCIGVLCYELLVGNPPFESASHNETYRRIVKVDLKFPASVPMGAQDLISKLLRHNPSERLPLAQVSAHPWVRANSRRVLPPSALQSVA

| Compound | [Aurora A IC50 (nM)]/[PLK4 IC50 (nM)] [1] | [Aurora B IC50 (nM)]/[PLK4 IC50 (nM)] [2] | pIC50 (human recombinant PLK4) |
| --- | --- | --- | --- |
| COc1ccc2c(c1)[C@]1(C[C@H]1c1ccc3c(Nc4nccc5c4OC[C@@H]5CO)n[nH]c3c1)C(=O)N2 (single isomer, unassigned) [Example 33] | 355.9465 | 8.474 |  |
| COc1ccc2c(c1)[C@]1(C[C@H]1c1ccc3c(Nc4nccc5c4OC[C@H]5CO)n[nH]c3c1)C(=O)N2 (single isomer, unassigned) [Example 34] | 893.3126 | 19.96 |  |
| COc1ccc2c(c1)[C@]1(C[C@H]1c1ccc3c(Nc4nn(C)cc4OC)n[nH]c3c1)C(=O)N2.O=C(O)C(F)(F)F [Example 79, (1R,2S)-5′-methoxy-2-{3-[(4-methoxy-1-methyl-1H-pyrazol-3-yl)amino]-1H-indazol-6-yl}spiro[cyclopropane-1,3′-indol]-2′(1′H)-one] | 210.5378 | 6.986 |  |
| COc1ccc2c(c1)[C@]1(C[C@H]1c1ccc3c(Nc4ncnc(N5CCOCC5)c4OC(F)F)n[nH]c3c1)C(=O)N2 [Example 109, (1R,2S)-2-(3-{[5-(difluoromethoxy)-6-(morpholin-4-yl)pyrimidin-4-yl]amino}-1H-indazol-6-yl)-5′-methoxyspiro[cyclopropane-1,3′-indol]-2′(1′H)-one] | 50000 |  |  |
| COc1cnc(C)nc1Nc1n[nH]c2cc([C@@H]3C[C@@]34C(=O)Nc3ccc(C(F)(F)F)cc34)ccc12 [Example 137, (1R,2S)-2-{3-[(5-methoxy-2-methylpyrimidin-4-yl)amino]-1H-indazol-6-yl}-5′-(trifluoromethyl)spiro[cyclopropane-1,3′-indol]-2′(1′H)-one] | 62 | 72 |  |
| COc1cnc(C)nc1Nc1n[nH]c2cc([C@@H]3C[C@@]34C(=O)Nc3ccc(OC(F)(F)F)cc34)ccc12 [Example 138, (1R,2S)-2-{3-[(5-methoxy-2-methylpyrimidin-4-yl)amino]-1H-indazol-6-yl}-5′-(trifluoromethoxy)spiro[cyclopropane-1,3′-indol]-2′(1′H)-one] | 70 | 36 |  |

Further lines, results first:

| [Aurora A IC50 (nM)]/[PLK4 IC50 (nM)] [1] | [Aurora B IC50 (nM)]/[PLK4 IC50 (nM)] [2] | pIC50 (human recombinant PLK4) | Compound |
| --- | --- | --- | --- |
| 7.4 | 9.6 |  | COc1cnc(C)nc1Nc1n[nH]c2cc([C@@H]3C[C@]34C(=O)Nc3ccc(OC(F)(F)F)cc34)ccc12 [Example 139, (1S,2S)-2-{3-[(5-methoxy-2-methylpyrimidin-4-yl)amino]-1H-indazol-6-yl}-5′-(trifluoromethoxy)spiro[cyclopropane-1,3′-indol]-2′(1′H)-one] |
|  | 280 |  | COc1ccc2c(c1)[C@]1(C[C@H]1c1ccc3c(Nc4cc(OC)c(S(N)(=O)=O)cc4OC)n[nH]c3c1)C(=O)N2 [Example 212, 2,5-Dimethoxy-4-({6-[(1R,2S)-5′-methoxy-2′-oxo-1′,2′-dihydrospiro[cyclopropane-1,3′-indol]-2-yl]-1H-indazol-3-yl}amino)benzene-1-sulfonamide] |
| 1884.6028 | 381.4972 | 8.21 | COc1ccc2c(c1)[C@]1(C[C@H]1c1ccc3c(Nc4ncc(P(C)(C)=O)cc4OC)n[nH]c3c1)C(=O)N2 [Example 225, (1R,2S)-2-(3-{[5-(dimethylphosphoryl)-3-methoxypyridin-2-yl]amino}-1H-indazol-6-yl)-5′-methoxyspiro[cyclopropane-1,3′-indol]-2′(1′H)-one] |
|  | 230 |  | CCOc1cc(S(=O)(=O)NC)cnc1Nc1n[nH]c2cc([C@@H]3C[C@@]34C(=O)Nc3ccc(OC)cc34)ccc12 [Example 275, 5-ethoxy-6-({6-[(1R,2S)-5′-methoxy-2′-oxo-1′,2′-dihydrospiro[cyclopropane-1,3′-indol]-2-yl]-1H-indazol-3-yl}amino)-N-methylpyridine-3-sulfonamide] |
